Assays:
[1] = Cytotoxicity against human HCC44 cells after 96 hrs by Cell Titer Glo assay; format: functional, cell-based; settings: HCC44, 96 h
A549 = test: Cytotoxicity against human A549 cells after 96 hrs by Cell Titer Glo assay; format: functional, cell-based; settings: A549, 96 h
[2] = Ratio IC50 for compound to mithramycin IC50 for mouse 3T3 cells; format: cell-based; settings: NIH3T3 cells, read-out: Ratio IC50

| Compound | IC50 [1] [µM] | IC50 (A549) [µM] | selectivity ratio [2] |
| --- | --- | --- | --- |
| CO[C@@H]1[C@H](O)C[C@@H](O[C@@H]2C[C@H](Oc3cc4cc5c(c(O)c4c(O)c3C)C(=O)[C@@H](O[C@H]3C[C@@H](O[C@H]4C[C@@H](O[C@H]6C[C@](C)(O)[C@@H](OC(C)=O)[C@H](C)O6)[C@H](O)[C@@H](C)O4)[C@H](O)[C@@H](C)O3)[C@H]([C@H](OC)C(=O)[C@@H](O)[C@@H](C)O)C5)O[C@H](C)[C@@H]2OC(C)=O)O[C@@H]1C [CHROMOMYCIN A3] | 0.001 | 0.042 |  |
| COC(=O)[C@@H](OC)[C@@H]1Cc2cc3cc(O[C@H]4C[C@@H](O[C@@H]5C[C@@H](O)[C@H](OC)[C@@H](C)O5)[C@H](OC(C)=O)[C@@H](C)O4)c(C)c(O)c3c(O)c2C(=O)[C@H]1O[C@H]1C[C@H](O[C@H]2C[C@H](O[C@H]3C[C@@](C)(O)[C@@H](OC(=O)C(C)C)[C@H](C)O3)[C@H](O)[C@@H](C)O2)[C@H](O)[C@@H](C)O1 | 0.056 |  |  |
| CO[C@H]1[C@H](O)C[C@@H](O[C@@H]2C[C@H](Oc3cc4cc5c(c(O)c4c(O)c3C)C(=O)[C@@H](O[C@H]3C[C@H](O[C@H]4C[C@H](O[C@H]6C[C@@](C)(O)[C@@H](OC(C)=O)[C@H](C)O6)[C@H](O)[C@@H](C)O4)[C@H](O)[C@@H](C)O3)[C@H]([C@H](OC)C(=O)O)C5)O[C@H](C)[C@H]2OC(C)=O)O[C@@H]1C [CHROMOMYCIN SA] | 0.21 | 0.56 |  |
| CO[C@H]1[C@H](O)C[C@@H](O[C@@H]2C[C@H](Oc3cc4cc5c(c(O)c4c(O)c3C)C(=O)[C@@H](O[C@H]3C[C@H](O[C@H]4C[C@H](O[C@H]6C[C@@](C)(O)[C@@H](O)[C@H](C)O6)[C@H](O)[C@@H](C)O4)[C@H](O)[C@@H](C)O3)[C@H]([C@H](OC)C(=O)[C@@H](O)[C@@H](C)O)C5)O[C@H](C)[C@H]2OC(C)=O)O[C@@H]1C [DEACETYL CHROMOMYCIN A3] | 0.67 | 1.2 |  |
| CO[C@H](C(=O)[C@@H](O)[C@@H](C)O)[C@@H]1Cc2cc3cc(O[C@H]4C[C@@H](O[C@H]5C[C@@H](O)[C@H](O)[C@@H](C)O5)[C@H](O)[C@@H](C)O4)c(C)c(O)c3c(O)c2C(=O)[C@H]1O[C@H]1C[C@@H](O[C@H]2C[C@@H](O[C@H]3C[C@](C)(O)[C@H](O)[C@@H](C)O3)[C@@H](O)[C@@H](C)O2)[C@H](O)[C@@H](C)O1 [PLICAMYCIN] |  |  | 1500 |
| CO[C@H]1[C@H](O)C[C@@H](O[C@@H]2C[C@H](Oc3cc4cc5c(c(O)c4c(O)c3C)C(=O)[C@@H](O[C@H]3C[C@H](O[C@H]4C[C@H](O[C@H]6C[C@@](C)(O)[C@@H](O)[C@H](C)O6)[C@H](O)[C@@H](C)O4)[C@H](O)[C@@H](C)O3)[C@H]([C@H](OC)C(=O)O)C5)O[C@H](C)[C@H]2OC(C)=O)O[C@@H]1C [CHROMOMYCIN SA3] | > 33.3 | > 50 |  |
| COC(=O)[C@@H](OC)[C@@H]1Cc2cc3cc(O[C@H]4C[C@@H](O[C@@H]5C[C@@H](O)[C@H](OC)[C@@H](C)O5)[C@H](OC(C)=O)[C@@H](C)O4)c(C)c(O)c3c(O)c2C(=O)[C@H]1O[C@H]1C[C@H](O[C@H]2C[C@H](O[C@H]3C[C@@](C)(O)[C@@H](O)[C@H](C)O3)[C@H](O)[C@@H](C)O2)[C@H](O)[C@@H](C)O1 | 3.4 |  |  |
| CO[C@H]1[C@H](O)C[C@@H](O[C@@H]2C[C@H](Oc3cc4cc5c(c(O)c4c(O)c3C)C(=O)[C@@H](O[C@H]3C[C@H](O[C@H]4C[C@H](O[C@H]6C[C@@](C)(O)[C@@H](OC(=O)C(C)C)[C@H](C)O6)[C@H](O)[C@@H](C)O4)[C@H](O)[C@@H](C)O3)[C@H]([C@H](OC)C(=O)[C@@H](O)[C@@H](C)O)C5)O[C@H](C)[C@H]2OC(C)=O)O[C@@H]1C [CHROMOMYCIN A2] | 0.00026 | 0.00044 |  |
| CO[C@H]1[C@H](O)C[C@@H](O[C@@H]2C[C@H](Oc3cc4cc5c(c(O)c4c(O)c3C)C(=O)[C@@H](O[C@H]3C[C@H](O[C@H]4C[C@H](O[C@H]6C[C@@](C)(O)[C@@H](O)[C@H](C)O6)[C@H](O)[C@@H](C)O4)[C@H](O)[C@@H](C)O3)[C@H]([C@H](OC)C(=O)[C@@H](O)[C@@H](C)O)C5)O[C@H](C)[C@H]2O)O[C@@H]1C | > 50 | > 50 |  |
| CO[C@H]1[C@H](O)C[C@@H](O[C@@H]2C[C@H](Oc3cc4cc5c(c(O)c4c(O)c3C)C(=O)[C@@H](O[C@H]3C[C@H](O[C@H]4C[C@H](O[C@H]6C[C@@](C)(O)[C@@H](OC(=O)C(C)C)[C@H](C)O6)[C@H](O)[C@@H](C)O4)[C@H](O)[C@@H](C)O3)[C@H]([C@H](OC)C(=O)O)C5)O[C@H](C)[C@H]2OC(C)=O)O[C@@H]1C [CHROMOMYCIN SA2] | 0.78 | 1.5 |  |

From ChEMBL document CHEMBL1817646, “Chromomycin SA analogs from a marine-derived Streptomyces sp” (Bioorg Med Chem, 2011)
